Data on three molecules can be found in patent US20080207614A1, “QUINAZOLINE DERIVATIVES FOR THE TREATMENT AND PREVENTION OF DIABETES AND OBESITY” (SK CHEMICALS CO., LTD., priority 2004, published 2008).

One experiment deals with C2C12 muscle cells. The experiment is described as follows: Analysis of glucose absorption (2-deoxyglucose) in differentiated C2C12 muscle cells. The class given is cell-based. The settings on record: test materials 10 μM, times relative to control group. In a few lines: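 Uptake of 0.2 μCi 2-deoxyglucose over 20 min, counted radiometrically in lysed cells. Before tracer, compounds (10 μM) were applied for 30 min to C2C12 cells differentiated 6 days in 1% serum and equilibrated 3 h in 5 mM glucose KRB.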

The test system of a further experiment is AMPK. As to the kind of experiment: Measurement of AMPK activity by Western blot in C2C12 cells. The class given is cell-based. Details: key to AMPK activity (degree of phosphorylation of serine-79 and threonine-172): fold increase in threonine-172 phosphorylation. As to conditions: 10 μM for 50 minutes; for AMPK activity (degree of phosphorylation of serine-79 and threonine-172): no superscript: Western blot of serine-79 and threonine-172 phosphorylation. In a few lines: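 Western blot readout of AMPK Thr-172 and ACC Ser-79 phosphorylation, normalised against ERK, served as the activity measure. Cells were C2C12 after differentiation, treated 50 minutes with 10 μM test material. Grading by Thr-172 increase: ≥3-fold strong, 1-3-fold mild, <1-fold weak.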

As for `COc1cc(CNc2nc(-c3ccco3)nc3ccccc23)cc(OC)c1` [Compound 343, (3,5-Dimethoxybenzyl)-(2-furano-2-ylquinazolino-4-yl)-amine], the Glucose absorption in the experiment on C2C12 muscle cells is recorded as 1.3. The “AMPK activity (degree of phosphorylation of serine-79 and threonine-172)” value in the experiment with AMPK was found to be 0.8.

Turning to `COc1ccc(OC)c(CNc2nc(C(C)c3ccccc3)nc3ccccc23)c1` (stereo not shown) [Compound 380, (2,5-Dimethoxybenzyl)-[2-(1-phenylethyl)-quinazolino-4-yl]-amine], the Glucose absorption in the experiment on C2C12 muscle cells is given as 1.0. Besides, the “AMPK activity (degree of phosphorylation of serine-79 and threonine-172)” value in the experiment on AMPK was found to be 1.9.

Regarding `Cc1nc(NCCc2ccccc2)c2ccccc2n1` [Compound 167, (2-Methylquinazolino-4-yl)-phenethylamine], in the experiment with C2C12 muscle cells, the Glucose absorption was found to be 3.2. Further, the “AMPK activity (degree of phosphorylation of serine-79 and threonine-172)” value in the experiment on AMPK is reported as 6.7. Besides, the “AMPK activity (class: degree of phosphorylation of threonine-172)” value with AMPK (strong/mild/weak) is reported as “strong (“strong” means that the degree of phosphorylation of threonine-172 increased by 3 times or more)”.
